Laboratory results: ChEMBL document CHEMBL3885881, “DrugMatrix”

Species: Rattus norvegicus
Assay: DrugMatrix - Regimen: Daily Repeat
Format: toxicity, organism-based, Sprague-Dawley
Design: regimen Daily Repeat, gender Male, age 6-8 weeks
Settings: in vivo, po, route oral GAVAGE, vehicle .5 % CMC; for ABSOLUTE BASOPHIL / ABSOLUTE EOSINOPHIL / ABSOLUTE LYMPHOCYTE / ABSOLUTE MONOCYTE / ABSOLUTE SEGMENTED NEUTROPHIL / BASOPHIL / EOSINOPHIL / ERYTHROCYTE COUNT / HEMATOCRIT / HEMOGLOBIN / LEUKOCYTE COUNT / LYMPHOCYTE / MEAN CORPUSCULAR HEMOGLOBIN / MEAN CORPUSCULAR HEMOGLOBIN CONCENTRATION / MEAN CORPUSCULAR VOLUME / MONOCYTE / NEUTROPHIL / NUCLEATED RED BLOOD CELLS / PLATELET COUNT: tissue Blood; for ALANINE AMINOTRANSFERASE / ALBUMIN / ALKALINE PHOSPHATASE / ASPARTATE AMINOTRANSFERASE / BLOOD UREA NITROGEN / CARBON DIOXIDE / CHOLESTEROL / CREATINE PHOSPHOKINASE / CREATININE / GLUCOSE / LACTATE DEHYDROGENASE / LIPASE / PHOSPHORUS / SODIUM / TOTAL BILIRUBIN / TOTAL PROTEIN / URIC ACID: tissue Plasma
[1] = 15 mg/kg, 72 h, dose level Low, time 3 day
[2] = 15 mg/kg, 120 h, dose level Low, time 5 day
[3] = 750 mg/kg, 72 h, dose level High, time 3 day
[4] = 750 mg/kg, 120 h, dose level High, time 5 day

## CC(C)(C)c1ccc(C(O)CCCN2CCC(C(O)(c3ccccc3)c3ccccc3)CC2)cc1 (centres undefined) [TERFENADINE]
[1]
  ABSOLUTE BASOPHIL: 0 CELLS/uL
  ABSOLUTE EOSINOPHIL: 0 CELLS/uL
  ABSOLUTE LYMPHOCYTE: 10879.67 CELLS/uL
  ABSOLUTE MONOCYTE: 121.67 CELLS/uL
  ABSOLUTE SEGMENTED NEUTROPHIL: 1165.33 CELLS/uL
  BASOPHIL: 0%
  EOSINOPHIL: 0%
  ERYTHROCYTE COUNT: 5.45 x10E6/uL
  HEMATOCRIT: 33.93%
  HEMOGLOBIN: 12.77 G/DL
  LEUKOCYTE COUNT: 12.17 x10E3/uL
  LYMPHOCYTE: 89.33%
  MEAN CORPUSCULAR HEMOGLOBIN: 23.43 pg
  MEAN CORPUSCULAR HEMOGLOBIN CONCENTRATION: 37.63 G/DL
  MEAN CORPUSCULAR VOLUME: 62.27 fL
  MONOCYTE: 1%
  NEUTROPHIL: 9.67%
  NUCLEATED RED BLOOD CELLS: 0 /100WBC
  PLATELET COUNT: 1158.33 x10E3/uL
  ALANINE AMINOTRANSFERASE: 52.67 u/L
  ALBUMIN: 4.13 G/DL
  ALKALINE PHOSPHATASE: 451 u/L
  ASPARTATE AMINOTRANSFERASE: 72 u/L
  BLOOD UREA NITROGEN: 16.67 mg/dL
  CARBON DIOXIDE: 22.67 mmol/L
  CHOLESTEROL: 70 mg/dL
  CREATINE PHOSPHOKINASE: 139.33 u/L
  CREATININE: 0.18 mg/dL
  GLUCOSE: 155.33 mg/dL
  LACTATE DEHYDROGENASE: 130.33 u/L
  LIPASE: 10.67 u/L
  PHOSPHORUS: 13.47 mg/dL
  SODIUM: 145.6 MEQ/L
  TOTAL BILIRUBIN: 0.17 mg/dL
  TOTAL PROTEIN: 6.1 G/DL
  URIC ACID: 1.37 mg/dL
[2]
  ABSOLUTE BASOPHIL: 0 CELLS/uL
  ABSOLUTE EOSINOPHIL: 0 CELLS/uL
  ABSOLUTE LYMPHOCYTE: 14283 CELLS/uL
  ABSOLUTE MONOCYTE: 352.67 CELLS/uL
  ABSOLUTE SEGMENTED NEUTROPHIL: 1897.67 CELLS/uL
  BASOPHIL: 0%
  EOSINOPHIL: 0%
  ERYTHROCYTE COUNT: 5.72 x10E6/uL
  HEMATOCRIT: 34.8%
  HEMOGLOBIN: 13.17 G/DL
  LEUKOCYTE COUNT: 16.53 x10E3/uL
  LYMPHOCYTE: 86.67%
  MEAN CORPUSCULAR HEMOGLOBIN: 23.03 pg
  MEAN CORPUSCULAR HEMOGLOBIN CONCENTRATION: 37.83 G/DL
  MEAN CORPUSCULAR VOLUME: 60.87 fL
  MONOCYTE: 2%
  NEUTROPHIL: 11.33%
  NUCLEATED RED BLOOD CELLS: 0 /100WBC
  PLATELET COUNT: 993 x10E3/uL
  ALANINE AMINOTRANSFERASE: 51.33 u/L
  ALBUMIN: 4.13 G/DL
  ALKALINE PHOSPHATASE: 285 u/L
  ASPARTATE AMINOTRANSFERASE: 91.33 u/L
  BLOOD UREA NITROGEN: 16 mg/dL
  CARBON DIOXIDE: 26.67 mmol/L
  CHOLESTEROL: 66.67 mg/dL
  CREATINE PHOSPHOKINASE: 518.33 u/L
  CREATININE: 0.2 mg/dL
  GLUCOSE: 156 mg/dL
  LACTATE DEHYDROGENASE: 390.67 u/L
  LIPASE: 10.67 u/L
  PHOSPHORUS: 13.3 mg/dL
  SODIUM: 144.33 MEQ/L
  TOTAL BILIRUBIN: 0.1 mg/dL
  TOTAL PROTEIN: 6 G/DL
  URIC ACID: 1.43 mg/dL
[3]
  ABSOLUTE BASOPHIL: 0 CELLS/uL
  ABSOLUTE EOSINOPHIL: 0 CELLS/uL
  ABSOLUTE LYMPHOCYTE: 14273 CELLS/uL
  ABSOLUTE MONOCYTE: 481.67 CELLS/uL
  ABSOLUTE SEGMENTED NEUTROPHIL: 1312 CELLS/uL
  BASOPHIL: 0%
  EOSINOPHIL: 0%
  ERYTHROCYTE COUNT: 6.18 x10E6/uL
  HEMATOCRIT: 38.5%
  HEMOGLOBIN: 14.53 G/DL
  LEUKOCYTE COUNT: 16.07 x10E3/uL
  LYMPHOCYTE: 88.67%
  MEAN CORPUSCULAR HEMOGLOBIN: 23.5 pg
  MEAN CORPUSCULAR HEMOGLOBIN CONCENTRATION: 37.77 G/DL
  MEAN CORPUSCULAR VOLUME: 62.27 fL
  MONOCYTE: 3%
  NEUTROPHIL: 8.33%
  NUCLEATED RED BLOOD CELLS: 0 /100WBC
  PLATELET COUNT: 1171.33 x10E3/uL
  ALANINE AMINOTRANSFERASE: 99 u/L
  ALBUMIN: 4.33 G/DL
  ALKALINE PHOSPHATASE: 343.33 u/L
  ASPARTATE AMINOTRANSFERASE: 108 u/L
  BLOOD UREA NITROGEN: 13.33 mg/dL
  CARBON DIOXIDE: 21.33 mmol/L
  CHOLESTEROL: 50 mg/dL
  CREATINE PHOSPHOKINASE: 417.33 u/L
  CREATININE: 0.18 mg/dL
  GLUCOSE: 144.33 mg/dL
  LACTATE DEHYDROGENASE: 236.33 u/L
  LIPASE: 8.67 u/L
  PHOSPHORUS: 12.17 mg/dL
  SODIUM: 145.77 MEQ/L
  TOTAL BILIRUBIN: 0.23 mg/dL
  TOTAL PROTEIN: 5.97 G/DL
  URIC ACID: 1.57 mg/dL
[4]
  ABSOLUTE BASOPHIL: 0 CELLS/uL
  ABSOLUTE EOSINOPHIL: 72 CELLS/uL
  ABSOLUTE LYMPHOCYTE: 15584.33 CELLS/uL
  ABSOLUTE MONOCYTE: 134.67 CELLS/uL
  ABSOLUTE SEGMENTED NEUTROPHIL: 2309 CELLS/uL
  BASOPHIL: 0%
  EOSINOPHIL: 0.33%
  ERYTHROCYTE COUNT: 6.8 x10E6/uL
  HEMATOCRIT: 40.3%
  HEMOGLOBIN: 15.4 G/DL
  LEUKOCYTE COUNT: 18.1 x10E3/uL
  LYMPHOCYTE: 86.33%
  MEAN CORPUSCULAR HEMOGLOBIN: 22.7 pg
  MEAN CORPUSCULAR HEMOGLOBIN CONCENTRATION: 38.23 G/DL
  MEAN CORPUSCULAR VOLUME: 59.33 fL
  MONOCYTE: 0.67%
  NEUTROPHIL: 12.67%
  NUCLEATED RED BLOOD CELLS: 0 /100WBC
  PLATELET COUNT: 1002.67 x10E3/uL
  ALANINE AMINOTRANSFERASE: 124.67 u/L
  ALBUMIN: 4.3 G/DL
  ALKALINE PHOSPHATASE: 360.33 u/L
  ASPARTATE AMINOTRANSFERASE: 104.67 u/L
  BLOOD UREA NITROGEN: 16.67 mg/dL
  CARBON DIOXIDE: 27.67 mmol/L
  CHOLESTEROL: 55.67 mg/dL
  CREATINE PHOSPHOKINASE: 566 u/L
  CREATININE: 0.26 mg/dL
  GLUCOSE: 128 mg/dL
  LACTATE DEHYDROGENASE: 180.33 u/L
  LIPASE: 9.67 u/L
  PHOSPHORUS: 12.07 mg/dL
  SODIUM: 145.6 MEQ/L
  TOTAL BILIRUBIN: 0.13 mg/dL
  TOTAL PROTEIN: 6.27 G/DL
  URIC ACID: 1.9 mg/dL
